{"source": "patent US20020148001A1", "about": "“Transgenic mice containing CRFR2 corticotropin-releasing factor receptor gene disruptions” (priority 2000, published 2002)", "key": {"[1]": {"system": "wild-type control mice (+/+)", "assay": "Metrazol dose test (seizure susceptibility), wild-type control mice", "assay_type": "in vivo, mouse", "settings": "genotype +/+", "experimental": "(§1) A metrazol administration test can be used to screen animals for varying susceptibilities to seizures or similar events. For example, a 5 mg/ml solution of metrazol can be infused through the tail vein of a mouse at a rate of, e.g., approximately 0.375 ml/min. The infusion will cause all mice to experience seizures, followed by death. Those mice that enter the seizure stage the soonest are believed to be more prone to seizures.\n(§2) Phenotypic Analysis. The transgenic mice were analyzed for phenotypic changes."}, "[2]": {"system": "homozygous mutant mice (CRFR2 −/−)", "assay": "Metrazol dose test (seizure susceptibility), CRFR2 homozygous mutant mice", "assay_type": "in vivo, mouse", "settings": "for Dose to Death / Dose to Extension (tonic extension) / Dose to T/C (tonic/clonic seizure) / Dose to Twitch: genotype −/−", "experimental": "as §1, §2"}, "CRF2 receptor": {"molecular_target": "T1, CRF2 receptor (Homo sapiens, UniProt Q13324)", "T1 sequence (Q13324 1-411)": "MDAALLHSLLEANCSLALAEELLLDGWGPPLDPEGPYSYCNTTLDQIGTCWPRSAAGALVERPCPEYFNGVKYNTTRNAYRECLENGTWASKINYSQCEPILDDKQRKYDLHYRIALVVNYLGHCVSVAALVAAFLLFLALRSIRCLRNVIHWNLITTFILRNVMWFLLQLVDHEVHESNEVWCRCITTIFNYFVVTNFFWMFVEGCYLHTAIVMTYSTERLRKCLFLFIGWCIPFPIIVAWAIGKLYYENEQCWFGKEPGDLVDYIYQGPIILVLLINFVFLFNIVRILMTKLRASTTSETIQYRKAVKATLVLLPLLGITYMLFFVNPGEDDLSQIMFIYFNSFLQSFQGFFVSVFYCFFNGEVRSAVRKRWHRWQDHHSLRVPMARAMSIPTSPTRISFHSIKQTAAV", "settings": "transfected cells expressing the CRF2 receptor; cited from earlier work"}, "CRHR2 −/− mice [3]": {"system": "CRHR2 −/− mice", "settings": "intravenously injected, mutant mice; cited from earlier work"}, "CRHR2 −/− mice [4]": {"system": "CRHR2 −/− mice", "settings": "CRHR2 −/− mice following urocortin administration; recovered more rapidly than wildtype; cited from earlier work"}, "CRHR2 −/− mice [5]": {"system": "CRHR2 −/− mice", "settings": "systemic urocortin, CRHR2 −/− mice in contrast to wildtype; cited from earlier work"}}, "note": "No end group written: not given here.", "data": [{"compound": "C1CCc2nnnn2CC1", "note": "[metrazol]", "values": [{"measurement": "Dose to Death", "setting": "[1]; F2N0", "value": 136.65, "unit": "mg/kg body weight"}, {"measurement": "Dose to Extension (tonic extension)", "setting": "[1]; F2N0", "value": 113.63, "unit": "mg/kg body weight"}, {"measurement": "Dose to T/C (tonic/clonic seizure)", "setting": "[1]; F2N0", "value": 43.46, "unit": "mg/kg body weight"}, {"measurement": "Dose to Twitch", "setting": "[1]; F2N0, tail vein infusion", "value": 36.93, "unit": "mg/kg body weight"}, {"measurement": "Dose to Death", "setting": "[1]; F2N1", "value": 124.96, "unit": "mg/kg body weight"}, {"measurement": "Dose to Extension (tonic extension)", "setting": "[1]; F2N1", "value": 95.46, "unit": "mg/kg body weight"}, {"measurement": "Dose to T/C (tonic/clonic seizure)", "setting": "[1]; F2N1", "value": 34.36, "unit": "mg/kg body weight"}, {"measurement": "Dose to Twitch", "setting": "[1]; F2N1", "value": 23.71, "unit": "mg/kg body weight"}, {"measurement": "Dose to Death", "setting": "[2]; F2N0", "value": 127.39, "unit": "mg/kg body weight"}, {"measurement": "Dose to Extension (tonic extension)", "setting": "[2]; F2N0", "value": 98.20, "unit": "mg/kg body weight"}, {"measurement": "Dose to T/C (tonic/clonic seizure)", "setting": "[2]; F2N0", "value": 44.38, "unit": "mg/kg body weight"}, {"measurement": "Dose to Twitch", "setting": "[2]; F2N0", "value": 34.90, "unit": "mg/kg body weight"}, {"measurement": "Dose to Death", "setting": "[2]; F2N1", "value": 148.84, "unit": "mg/kg body weight"}, {"measurement": "Dose to Extension (tonic extension)", "setting": "[2]; F2N1", "value": 119.75, "unit": "mg/kg body weight"}, {"measurement": "Dose to T/C (tonic/clonic seizure)", "setting": "[2]; F2N1", "value": 37.93, "unit": "mg/kg body weight"}, {"measurement": "Dose to Twitch", "setting": "[2]; F2N1", "value": 24.18, "unit": "mg/kg body weight"}, {"measurement": "metrazol response threshold, dose to show stereotypical seizure responses", "setting": "[2]; homozygotes compared to wild-types, particularly tonic extension and death", "value": "higher dose of metrazol than wild-types"}]}, {"compound": "corticotropin-releasing hormone [CRH]", "values": [{"measurement": "intracellular cAMP", "setting": "CRF2 receptor", "value": "increase"}]}, {"compound": "urocortin (DDPPLSIDLTFHLLRTLLELARTQSQRERAEQNRIIFDSV; ends and bridges not checked; UniProt P81615 81-120, looked up)", "values": [{"measurement": "effect on mean arterial pressure", "setting": "CRHR2 −/− mice [3]", "value": "no effect"}, {"measurement": "feeding", "setting": "CRHR2 −/− mice [4]", "value": "initially suppressed"}, {"measurement": "enhanced cardiac performance or reduced blood pressure", "setting": "CRHR2 −/− mice [5]", "value": "failed to show the enhanced cardiac performance or reduced blood pressure"}]}]}
